This note sets out measurements from patent US7799824B2, “Quaternary salt CCR2 antagonists” (OraPharma, Inc., priority 2004, dated 2010).

This test deals with T1, CCR2 (Homo sapiens, UniProt P41597).
T1 sequence (P41597 1-360 isoform P41597-2): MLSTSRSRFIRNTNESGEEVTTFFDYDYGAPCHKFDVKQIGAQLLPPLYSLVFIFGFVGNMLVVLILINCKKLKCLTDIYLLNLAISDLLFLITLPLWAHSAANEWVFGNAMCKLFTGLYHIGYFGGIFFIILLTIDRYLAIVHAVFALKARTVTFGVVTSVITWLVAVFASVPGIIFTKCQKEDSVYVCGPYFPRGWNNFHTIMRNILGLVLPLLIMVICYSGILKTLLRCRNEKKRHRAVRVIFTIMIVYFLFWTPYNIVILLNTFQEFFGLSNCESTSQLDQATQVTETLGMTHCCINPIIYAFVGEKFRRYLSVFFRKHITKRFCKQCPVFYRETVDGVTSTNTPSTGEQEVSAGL
Briefly: MCP-1 Receptor Binding Assay in THP-1 Cells. To be noted: for IC50: THP-1 cells, 0.5 nM 125I labeled MCP-1, 2 hours at 30° C., read-out: Mean Ligand Binding IC50 (inhibition of MCP-1 binding to CCR2); for inhibition at 25 µM: MCP-1 binding to CCR2, test concentration of 25 μM, unless indicated otherwise, read-out: % Inhibition Ligand Binding. The protocol:
THP-1 cells were obtained from American Type Culture Collection (Manassas, Va., USA). […] The cell density was maintained between 0.5×10^6 cells/mL.
Cells were then harvested onto a filter plate, dried, and 20 μL of Microscint 20 was added to each well. Plates were counted in a TopCount NXT, Microplate Scintillation & Luminescence Counter (Perkin-Elmer Life Sciences, Inc. Boston, Mass.). Blank values (buffer only) were subtracted from all values and drug treated values were compared to vehicle treated values. 1 μM cold MCP-1 was used for nonspecific binding.

SMILES strings stand for the structures. Where “and” joins values, the source holds several entries; their conditions need not be identical. Equal entries are not always repeated.

The term IC50 denotes the midpoint of a concentration-inhibition curve. Consider `C[N+]1(Cc2cccc(NC(=O)c3cccc(C(F)(F)F)c3)c2)CCCCC1` [Cpd 56, 1-methyl-1-[3-(3-trifluoromethyl-benzoylamino)-benzyl]-piperidinium iodide], for which the IC50 was 11.8 µM.
With `C[N+]1(Cc2ccc(NC(=O)C=Cc3cccc(C(F)(F)F)c3)cc2)CCCCC1` [Cpd 57, 1-methyl-1-{4-[3-(3-trifluoromethyl-phenyl)-acryloylamino]-benzyl}-piperidinium iodide], the half-inhibitory concentration (IC50) is 13.3 µM.
As a reminder, the inhibition is the drop in the measured response relative to a control, in per cent. With `C[N+]1(Cc2ccc(CNC(=O)C=Cc3ccc(Cl)c(Cl)c3)cc2)CCOCC1` [Cpd 58, 4-(4-{[3-(3,4-dichloro-phenyl)-acryloylamino]-methyl}-benzyl)-4-methyl-morpholin-4-ium iodide], the inhibition at 25 µM came out at 53%.
`C[N+]1(Cc2ccc(NC(=O)c3ccc(Cl)c(Cl)c3)cc2)CCOCC1` [Cpd 59, 4-[4-(3,4-dichloro-benzoylamino)-benzyl]-4-methyl-morpholin-4-ium iodide]: the IC50 worked out at 10 µM.
Consider `C[N+]1(Cc2ccc(NC(=O)C=Cc3ccc(Cl)c(Cl)c3)cc2)CCOCC1` [Cpd 60, 4-{4-[3-(3,4-dichloro-phenyl)-acryloylamino]-benzyl}-4-methyl-morpholin-4-ium iodide], for which the inhibition at 25 µM was determined as 20%.
Regarding `C[N+]1(Cc2ccc(NC(=O)C=Cc3cccc(Br)c3)cc2)CCOCC1` [Cpd 61, 4-{4-[3-(3-bromo-phenyl)-acryloylamino]-benzyl}-4-methyl-morpholin-4-ium iodide], the IC50 amounted to 2.7 µM.
Consider `C[N+]1(Cc2ccc(CNC(=O)C=Cc3cccc(C(F)(F)F)c3)cc2)CCOCC1` [Cpd 62, 4-methyl-4-(4-{[3-(3-trifluoromethyl-phenyl)-acryloylamino]-methyl}-benzyl)-morpholin-4-ium iodide], for which the inhibition at 25 µM was 9%.
As to `C=CC[N+](C)(Cc1ccc(NC(=O)C=Cc2cccc(Br)c2)cc1)C1CCSCC1` (stereo not shown) [Cpd 63, allyl-{4-[3-(3-bromo-phenyl)-acryloylamino]-benzyl}-methyl-(tetrahydro-thiopyran-4-yl)-ammonium iodide], the IC50 was 3.5 µM.
For the molecule `C[N+](C)(Cc1ccc(CNC(=O)C=Cc2cccc(C(F)(F)F)c2)cc1)C1CCOCC1` [Cpd 64, dimethyl-(tetrahydro-pyran-4-yl)-(4-{[3-(3-trifluoromethyl-phenyl)-acryloylamino]-methyl}-benzyl)-ammonium iodide], the inhibition at 25 µM worked out at 63%.
Take `C[N+](C)(Cc1cccc(NC(=O)c2cccc(C(F)(F)F)c2)c1)C1CCOCC1` [Cpd 65, dimethyl-(tetrahydro-pyran-4-yl)-[3-(3-trifluoromethyl-benzoylamino)-benzyl]-ammonium iodide]: the inhibition at 25 µM amounted to 61%.
On to `Cc1cccc(C=CC(=O)Nc2ccc(C[N+](C)(C)C3CCOCC3)cc2)c1` [Cpd 66, dimethyl-(tetrahydro-pyran-4-yl)-[4-(3-m-tolyl-acryloylamino)-benzyl]-ammonium iodide], for which the IC50 came out at 1.7 µM.
With `C[N+](C)(Cc1ccc(NC(=O)C=Cc2cccc(C(F)(F)F)c2)cc1)C1CCOCC1` [Cpd 68, dimethyl-(tetrahydro-pyran-4-yl)-{4-[3-(3-trifluoromethyl-phenyl)-acryloylamino]-benzyl}-ammonium iodide], the half-inhibitory concentration (IC50) was found to be 1.5 µM.
`C[N+](C)(Cc1ccc(NC(=O)C=Cc2ccc(Cl)c(Cl)c2)cc1)C1CCCCC1` [Cpd 71, cyclohexyl-{4-[3-(3,4-dichloro-phenyl)-acryloylamino]-benzyl}-dimethyl-ammonium iodide]: the IC50 was 0.17 µM and 0.32 µM.
In the case of `C[N+](C)(Cc1ccc(NC(=O)C=Cc2cccc(Br)c2)cc1)C1CCCCC1` [Cpd 72, {4-[3-(3-bromo-phenyl)-acryloylamino]-benzyl}-cyclohexyl-dimethyl-ammonium iodide], the IC50 came out at 0.58 µM.
As for `C[N+](C)(Cc1ccc(NC(=O)c2cccc(Br)c2)cc1)C1CCCCC1` [Cpd 73, [4-(3-bromo-benzoylamino)-benzyl]-cyclohexyl-dimethyl-ammonium iodide], the concentration for half-maximal inhibition (IC50) was determined as 0.44 µM.
As for `C[N+](C)(Cc1ccc(NC(=O)c2cccc(C(F)(F)F)c2)cc1)C1CCCCC1` [Cpd 74, cyclohexyl-dimethyl-[4-(3-trifluoromethyl-benzoylamino)-benzyl]-ammonium iodide], the 50% inhibitory concentration (IC50) amounted to 1.5 µM.
Take `C[N+](C)(Cc1ccc(NC(=O)c2ccc(F)c(Cl)c2)cc1)C1CCCCC1` [Cpd 76, [4-(3-chloro-4-fluoro-benzoylamino)-benzyl]-cyclohexyl-dimethyl-ammonium iodide]: the IC50 stood at 0.16 µM.
With `C[N+](C)(Cc1ccc(NC(=O)c2cccc(Cl)c2Cl)cc1)C1CCCCC1` [Cpd 77, cyclohexyl-[4-(2,3-dichloro-benzoylamino)-benzyl]-dimethyl-ammonium iodide], the inhibition at 25 µM was 53%.
On to `C[N+](C)(Cc1ccc(NC(=O)c2c(Cl)cccc2Cl)cc1)C1CCCCC1` [Cpd 78, cyclohexyl-[4-(2,6-dichloro-benzoylamino)-benzyl]-dimethyl-ammonium iodide], for which the IC50 came to 13.4 µM.
Still for that read-out and setting: in the case of `COc1ccc(C(=O)Nc2ccc(C[N+](C)(C)C3CCCCC3)cc2)cc1Cl` [Cpd 79, [4-(3-chloro-4-methoxy-benzoylamino)-benzyl]-cyclohexyl-dimethyl-ammonium iodide] it was 0.31 µM; in that of `Cc1ccc(C(=O)Nc2ccc(C[N+](C)(C)C3CCCCC3)cc2)cc1Cl` [Cpd 80, [4-(3-chloro-4-methyl-benzoylamino)-benzyl]-cyclohexyl-dimethyl-ammonium iodide], 0.03 µM; in that of `C[N+](C)(Cc1ccc(NC(=O)c2cc(Cl)ccc2Cl)cc1)C1CCCCC1` [Cpd 81, cyclohexyl-[4-(2,5-dichloro-benzoylamino)-benzyl]-dimethyl-ammonium iodide], 3 µM.
In the case of `C[N+](C)(Cc1cccc(NC(=O)C=Cc2ccc(Cl)c(Cl)c2)c1)C1CCCCC1` [Cpd 83, cyclohexyl-{3-[3-(3,4-dichloro-phenyl)-acryloylamino]-benzyl}-dimethyl-ammonium iodide], the IC50 came out at 1.2 µM.
Regarding `C[N+](C)(Cc1cccc(NC(=O)C=Cc2ccc(F)cc2)c1)C1CCCCC1` [Cpd 84, cyclohexyl-{3-[3-(4-fluoro-phenyl)-acryloylamino]-benzyl}-dimethyl-ammonium iodide], the 50% inhibitory concentration (IC50) is 3.2 µM.
Turning to `C[N+](C)(Cc1ccc(NC(=O)c2cccc(-c3ccc(C(F)(F)F)cc3)c2)cc1)C1CCOCC1` [Cpd 85, dimethyl-(tetrahydro-pyran-4-yl)-{4-[(4′-trifluoromethyl-biphenyl-3-carbonyl)-amino]-benzyl}-ammonium iodide], the IC50 came to 5.2 µM.
Consider `Cc1ccc(-c2cccc(C(=O)Nc3ccc(C[N+](C)(C)C4CCCCC4)cc3)c2)cc1` [Cpd 86, cyclohexyl-dimethyl-{4-[(4′-methyl-biphenyl-3-carbonyl)-amino]-benzyl}-ammonium iodide], for which the IC50 is 6 µM.
With `C[N+](C)(Cc1ccc(NC(=O)c2ccc(-c3ccccc3)cc2)cc1)C1CCOCC1` [Cpd 88, {4-[(biphenyl-4-carbonyl)-amino]-benzyl}-dimethyl-(tetrahydro-pyran-4-yl)-ammonium iodide], the IC50 was 0.87 µM.
On to `C[N+](C)(Cc1ccc(NC(=O)c2cccc3ccccc23)cc1)C1CCOCC1` [Cpd 89, dimethyl-{4-[(naphthalene-1-carbonyl)-amino]-benzyl}-(tetrahydro-pyran-4-yl)-ammonium iodide], for which the inhibition at 25 µM amounted to 29%.
